Data as given in US6706663B2, “Herbicidal 3-heterocyclic substituted benzisothiazole and benzisoxazole compounds” (Wyeth, priority 2000, dated 2004).

Tests used:
ZEAMX (Corn, Field) [1] = assay: Preemergence herbicidal evaluation; format: in vivo, Zea mays, L.; conditions: rated 4-5 weeks after treatment
CYPIR (Cyperus iria) = assay: Flooded paddy, preemergence weed control; format: in vivo; conditions: rated 3-4 weeks after treatment, 0-9 rating scale
Outline: (§1)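 Under paddy conditions, seeds or vegetative propagules go into the top 0.5 cm of silt loam; the soil is then flooded to 1.5–3 cm and kept so. Treated pots stay in a greenhouse; response is rated 0-9 visually versus control.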

[2] = tested on: ECHCG (Echinochloa crus-galli); assay: Postemergence herbicidal evaluation; format: in vivo, (L.) Beau; conditions: postemergence
Outline: (§2)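 Seedlings grown for about two weeks were sprayed postemergence and then kept under standard greenhouse care. Injury was rated visually 4–5 weeks after treatment on a 0–9 scale against untreated controls, and ratings from repeat tests were averaged.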

[3] = tested on: ABUTH (Abutilon theophrasti); assay: Postemergence herbicidal evaluation; format: in vivo, Medic.; conditions: postemergence
Outline: as §2

[4] = tested on: ECHORC (Echinochloa oryzoides); assay: Flooded paddy, preemergence weed control; format: in vivo, Echinochloa oryzoides (Ard.) Fritsch.; conditions: rated 3-4 weeks after treatment, 0-9 rating scale
Outline: as §1

[5] = tested on: IPOHE (Ipomoea hederacea); assay: Postemergence herbicidal evaluation; format: in vivo, (L.) Jacq.; conditions: postemergence
Outline: as §2

GALAP (Galium aparine) [6] = assay: Preemergence herbicidal evaluation; format: in vivo; conditions: rated 4-5 weeks after treatment
Outline: (§3)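 Each species was sown separately in potting soil over roughly one inch of soil, and the surface sprayed with compound dissolved in aqueous acetone. Assessment used a 0–9 visual scale against a control after four to five weeks.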

[7] = tested on: CASOB (Cassia obtusifolia); assay: Postemergence herbicidal evaluation; format: in vivo, L.; conditions: postemergence
Outline: as §2

[8] = tested on: CHEAL (Chenopodium album); assay: Postemergence herbicidal evaluation; format: in vivo, L.; conditions: postemergence
Outline: as §2

[9] = tested on: AMBEL (Ambrosia artemisifolia); assay: Postemergence herbicidal evaluation; format: in vivo, L.; conditions: postemergence
Outline: as §2

ZEAMX (Corn, Field) [10] = assay: Postemergence herbicidal evaluation; format: in vivo, Zea mays, L.; conditions: postemergence
Outline: as §2

ORYSAT (Rice, Tebonnet) = assay: Preemergence herbicidal evaluation; format: in vivo, Oryza sativa, (L.) Tebonnet; conditions: rated 4-5 weeks after treatment
[11] = tested on: GLXMAW (Soybean, Williams); assay: Preemergence herbicidal evaluation; format: in vivo, Glycine max, (L.) Merr. cv Williams; conditions: rated 4-5 weeks after treatment
[12] = tested on: TRZAWR (Wheat, Winter, cv Riband); assay: Preemergence herbicidal evaluation; format: in vivo, Triticum aestivum; conditions: rated 4-5 weeks after treatment
Outline: as §3

[13] = tested on: CASOB (Cassia obtusifolia); assay: Preemergence herbicidal evaluation; format: in vivo, L.; conditions: rated 4-5 weeks after treatment
Outline: as §3

[14] = tested on: CHEAL (Chenopodium album); assay: Preemergence herbicidal evaluation; format: in vivo, L.; conditions: rated 4-5 weeks after treatment
Outline: as §3

[15] = tested on: AMBEL (Ambrosia artemisifolia); assay: Preemergence herbicidal evaluation; format: in vivo, L.; conditions: rated 4-5 weeks after treatment
Outline: as §3

GALAP (Galium aparine) [16] = assay: Postemergence herbicidal evaluation; format: in vivo; conditions: postemergence
Outline: as §2

[17] = tested on: IPOHE (Ipomoea hederacea); assay: Preemergence herbicidal evaluation; format: in vivo, (L.) Jacq.; conditions: rated 4-5 weeks after treatment
[18] = tested on: GLXMAW (Soybean, Williams); assay: Postemergence herbicidal evaluation; format: in vivo, Glycine max, (L.) Merr. cv Williams; conditions: postemergence
Outline: as §2

[19] = tested on: SAGPY (Sagittaria pygmaea); assay: Flooded paddy, preemergence weed control; format: in vivo, L.; conditions: rated 3-4 weeks after treatment, 0-9 rating scale
Outline: as §1

C=CC1COC(c2nsc3ccc(-n4c(=O)cc(C(F)(F)F)n(C)c4=O)cc23)O1 (stereo not drawn) [Compound 76, 1-methyl-6-(trifluoromethyl)-3-[3-(4-vinyl-1,3-dioxolan-2-yl)-1,2-benzisothiazol-5-yl]uracil]
Preemergence herbicidal rating ZEAMX (ZEAMX (Corn, Field) [1]; Rate 0.0620 kg/ha): 8.5
Preemergence herbicidal rating ZEAMX (ZEAMX (Corn, Field) [1]; Rate 0.1250 kg/ha): 8.5
Preemergence herbicidal rating ZEAMX (ZEAMX (Corn, Field) [1]; Rate 0.2500 kg/ha): 9.0
herbicidal rating, CYPIR (CYPIR (Cyperus iria); rate 0.0080 kg/ha): 7.0
herbicidal rating, CYPIR (CYPIR (Cyperus iria); rate 0.0320 kg/ha): 8.0
herbicidal rating, CYPIR (CYPIR (Cyperus iria); rate 0.1250 kg/ha): 9.0
ECHCG herbicidal rating ([2]; rate 0.0320 kg/ha): 0.0
ECHCG herbicidal rating ([2]; rate 0.0620 kg/ha): 3.0
ABUTH herbicidal rating ([3]; rate 0.0320 kg/ha): 9.0
ABUTH herbicidal rating ([3]; rate 0.0620 kg/ha): 9.0
herbicidal rating, ECHORC ([4]; rate 0.0080 kg/ha): 5.0
herbicidal rating, ECHORC ([4]; rate 0.0320 kg/ha): 7.0
herbicidal rating, ECHORC ([4]; rate 0.1250 kg/ha): 9.0
IPOHE herbicidal rating ([5]; rate 0.0320 kg/ha): 7.0
IPOHE herbicidal rating ([5]; rate 0.0620 kg/ha): 9.0
Preemergence herbicidal rating GALAP (GALAP (Galium aparine) [6]; Rate 0.0620 kg/ha): 7.0
Preemergence herbicidal rating GALAP (GALAP (Galium aparine) [6]; Rate 0.1250 kg/ha): 9.0
Preemergence herbicidal rating GALAP (GALAP (Galium aparine) [6]; Rate 0.2500 kg/ha): 9.0
CASOB herbicidal rating ([7]; rate 0.0320 kg/ha): 4.0
CASOB herbicidal rating ([7]; rate 0.0620 kg/ha): 5.0
CHEAL herbicidal rating ([8]; rate 0.0320 kg/ha): 9.0
CHEAL herbicidal rating ([8]; rate 0.0620 kg/ha): 9.0
AMBEL herbicidal rating ([9]; rate 0.0320 kg/ha): 9.0
AMBEL herbicidal rating ([9]; rate 0.0620 kg/ha): 9.0
ZEAMX herbicidal rating (ZEAMX (Corn, Field) [10]; rate 0.0320 kg/ha): 3.5
ZEAMX herbicidal rating (ZEAMX (Corn, Field) [10]; rate 0.0620 kg/ha): 4.5
Preemergence herbicidal rating ORYSAT (ORYSAT (Rice, Tebonnet); Rate 0.0620 kg/ha): 7.0
Preemergence herbicidal rating ORYSAT (ORYSAT (Rice, Tebonnet); Rate 0.1250 kg/ha): 8.5
Preemergence herbicidal rating ORYSAT (ORYSAT (Rice, Tebonnet); Rate 0.2500 kg/ha): 9.0
Preemergence herbicidal rating GLXMAW ([11]; Rate 0.0620 kg/ha): 7.5
Preemergence herbicidal rating GLXMAW ([11]; Rate 0.1250 kg/ha): 9.0
Preemergence herbicidal rating GLXMAW ([11]; Rate 0.2500 kg/ha): 9.0
Preemergence herbicidal rating TRZAWR ([12]; Rate 0.0620 kg/ha): 7.0
Preemergence herbicidal rating TRZAWR ([12]; Rate 0.1250 kg/ha): 8.0
Preemergence herbicidal rating TRZAWR ([12]; Rate 0.2500 kg/ha): 8.0
Preemergence herbicidal rating CASOB ([13]; Rate 0.0620 kg/ha): 5.0
Preemergence herbicidal rating CASOB ([13]; Rate 0.1250 kg/ha): 8.5
Preemergence herbicidal rating CASOB ([13]; Rate 0.2500 kg/ha): 9.0
Preemergence herbicidal rating CHEAL ([14]; Rate 0.0620 kg/ha): 9.0
Preemergence herbicidal rating CHEAL ([14]; Rate 0.1250 kg/ha): 9.0
Preemergence herbicidal rating CHEAL ([14]; Rate 0.2500 kg/ha): 9.0
Preemergence herbicidal rating AMBEL ([15]; Rate 0.0620 kg/ha): 9.0
Preemergence herbicidal rating AMBEL ([15]; Rate 0.1250 kg/ha): 9.0
Preemergence herbicidal rating AMBEL ([15]; Rate 0.2500 kg/ha): 9.0
GALAP herbicidal rating (GALAP (Galium aparine) [16]; rate 0.0320 kg/ha): 5.0
GALAP herbicidal rating (GALAP (Galium aparine) [16]; rate 0.0620 kg/ha): 7.0
Preemergence herbicidal rating IPOHE ([17]; Rate 0.0620 kg/ha): 7.5
Preemergence herbicidal rating IPOHE ([17]; Rate 0.1250 kg/ha): 9.0
Preemergence herbicidal rating IPOHE ([17]; Rate 0.2500 kg/ha): 9.0
GLXMAW herbicidal rating ([18]; rate 0.0320 kg/ha): 7.0
GLXMAW herbicidal rating ([18]; rate 0.0620 kg/ha): 8.0
herbicidal rating, SAGPY ([19]; rate 0.0080 kg/ha): 0.0
herbicidal rating, SAGPY ([19]; rate 0.0320 kg/ha): 0.0
herbicidal rating, SAGPY ([19]; rate 0.1250 kg/ha): 9.0
